Source: ChEMBL document CHEMBL5370538, “Discovery of novel 6-p-tolyl-3-(3,4,5-trimethoxybenzyl)-7H-[1,2,4]triazolo[3,4-b][1,3,4]thiadiazine derivative as a potent tubulin inhibitor with promising in vivo antitumor activity” (Eur J Med Chem, 2023)

Columns and labels:
[1] = Half life in Sprague-Dawley rat at 10 mg/kg,po measured upto 24 hrs by LC-MS/MS analysis; type: ADME, organism-based; conditions: in vivo
HUVEC [2] = assay: Antivascular activity against human HUVEC cells assessed as inhibition of capillary tube formation incubated for 24 hrs by crystal violet staining based matrigel-transwell assay; type: functional, cell-based
[3] = AUC (0-t) in Sprague-Dawley rat at 10 mg/kg,po measured upto 24 hrs by LC-MS/MS analysis; type: ADME, organism-based; set-up: dose 10 mg/kg, time < 24 hrs, route po; conditions: in vivo
A549 = assay: Antitumor activity against human A549 cells xenografted in Balb/c mouse assessed as tumor growth inhibition at 60 mg/kg,ip administrated for 7 days; type: functional; conditions: A549, 168 h, time 7 day, read-out: TGI
HUVEC [4] = assay: Antivascular activity against human HUVEC cells assessed as inhibition of cell migration incubated for 24 hrs by wound healing assay; type: functional, cell-based
HeLa [5] = assay: Antiproliferative activity against human HeLa cells assessed as cell growth inhibition incubated for 48 hrs by MTT assay; type: functional, cell-based
HeLa [6] = assay: Induction of apoptosis in human HeLa cells assessed as viable cells at 0.03 uM incubated for 24 hrs Annexin V-FITC/PI staining based flow cytometry analysis (Rvb= 95.9 %); type: functional; conditions: read-out: Activity
HeLa [7] = assay: Induction of apoptosis in human HeLa cells assessed as early apoptotic cells at 0.12 uM incubated for 24 hrs Annexin V-FITC/PI staining based flow cytometry analysis (Rvb= 1.85 %); type: functional
[8] = MRT (0-infinity) in Sprague-Dawley rat at 2 mg/kg,iv measured upto 24 hrs by LC-MS/MS analysis; type: ADME, organism-based; conditions: in vivo
HeLa [9] = assay: Induction of apoptosis in human HeLa cells assessed as necrotic cells at 0.06 uM incubated for 24 hrs Annexin V-FITC/PI staining based flow cytometry analysis (Rvb= 0.12 %); type: functional
[10] = Toxicity in Balb/c mouse xenografted with human A549 cells assessed as change in body weight at 60 mg/kg,ip administrated for 7 days; type: organism-based; conditions: in vivo, 168 h, time 7 day
[11] = AUC (0-infinity) in Sprague-Dawley rat at 10 mg/kg,po measured upto 24 hrs by LC-MS/MS analysis; type: ADME, organism-based; set-up: time < 24 hrs, dose 10 mg/kg, route po; conditions: in vivo
HeLa [12] = assay: Induction of apoptosis in human HeLa cells assessed as necrotic cells at 0.12 uM incubated for 24 hrs Annexin V-FITC/PI staining based flow cytometry analysis (Rvb= 0.12 %); type: functional
HeLa [13] = assay: Induction of cell cycle arrest in human HeLa cells assessed as accumulation of cells at S phase at 0.06 uM incubated for 24 hrs by propidium iodide staining based flow cytometry (reference value: 20.22 %); type: functional

half-life [1]: 4.8 h | AUC(0-t) at 24 h [3]: 0.122 µg·h/mL | IC50 (HeLa [5]): 0.046 µM | MRT [8]: 1.8 h | AUC(0-inf) [11]: 0.124 µg·h/mL
Compound: COc1cc(Cc2nnc3n2N=C(c2ccc(C)cc2)CS3)cc(OC)c1OC
Activity (HUVEC [2]): Dose-Dependent Effect | inhibition in vivo at 60 mg/kg (A549): 47.3% | Activity (HUVEC [4]): Dose-Dependent Effect | viability at 0.03 µM (HeLa [6]): 76% | Activity (HeLa [7]): 24% | Activity (HeLa [9]): 0.46% | Activity [10]: Non-Toxic | Activity (HeLa [12]): 1.59% | Activity (HeLa [13]): 28.35%
